The values that follow come from PubChem BioAssay AID330 (DTP/NCI, 2004).

Several values for one entry are separate records, joined by “and”; a condition that tells them apart may be missing. Equal entries are not always repeated. Toxic doses and inconclusive results are not listed.

The subject of the assay is P388 leukemia ip, CD2F1 mice, survival T/C. The assay is described as follows: NCI In Vivo Anticancer Drug Screen. Data for tumor model P388 Leukemia (intraperitoneal) in CD2F1 (CDF1) mice. As to conditions: endpoint: median survival time, higher = longer survival. The procedure, abridged:
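Mice carrying the transplanted tumor received test compound or vehicle. Survival was recorded in each group, and the value is the treated-group measurement divided by that of the vehicle-treated control group.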

Setting [1] is: dose: 50.0 mg/kg/injection, schedule: Q04DX003 (ip), vehicle: saline with Tween-80.
The mark [2] stands for this setting: dose: 400.0 mg/kg/injection, schedule: Q04DX003 (ip), vehicle: saline with Tween-80.
The mark [3] stands for this setting: dose: 50.0 mg/kg/injection, schedule: Q01DX005 (ip), vehicle: saline with Tween-80.
The mark [4] stands for this setting: dose: 100.0 mg/kg/injection, schedule: Q01DX005 (ip), vehicle: saline with Tween-80.
Setting [5] is: dose: 200.0 mg/kg/injection, schedule: Q01DX005 (ip), vehicle: saline with Tween-80.
The mark [6] stands for this setting: dose: 60.0 mg/kg/injection, schedule: Q01DX005 (ip), vehicle: Klucel (hydroxypropylcellulose) (HPC).
Setting [7] is: dose: 120.0 mg/kg/injection, schedule: Q01DX005 (ip), vehicle: Klucel (hydroxypropylcellulose) (HPC).
Where [8] appears, read: dose: 240.0 mg/kg/injection, schedule: Q01DX005 (ip), vehicle: Klucel (hydroxypropylcellulose) (HPC).
Setting [9] is: dose: 50.0 mg/kg/injection, schedule: Q01DX005 (ip), vehicle: Klucel (hydroxypropylcellulose) (HPC).
[10] abbreviates: dose: 100.0 mg/kg/injection, schedule: Q01DX005 (ip), vehicle: Klucel (hydroxypropylcellulose) (HPC).
Where [11] appears, read: dose: 50.0 mg/kg/injection, schedule: Q01DX009 (ip), vehicle: saline with Tween-80.
Where [12] appears, read: dose: 100.0 mg/kg/injection, schedule: Q01DX009 (ip), vehicle: saline with Tween-80.
The mark [13] stands for this setting: dose: 200.0 mg/kg/injection, schedule: Q01DX009 (ip), vehicle: saline with Tween-80.

For the compound `Cc1nn(C(=O)c2ccncc2)c(C)c1N=Nc1ccc(S(=O)(=O)Nc2ccccn2)cc1`, the T/C is 100 % of control (dose: 50.0 mg/kg/injection, schedule: Q01DX009 (ip), vehicle: Klucel (hydroxypropylcellulose) (HPC)); 91 % of control (dose: 100.0 mg/kg/injection, schedule: Q01DX009 (ip), vehicle: Klucel (hydroxypropylcellulose) (HPC)); 92 % of control (dose: 200.0 mg/kg/injection, schedule: Q01DX009 (ip), vehicle: Klucel (hydroxypropylcellulose) (HPC)).

`CN(C)N=Nc1ccc(S(=O)(=O)Nc2ncccn2)cc1`: the T/C (dose: 8.75 mg/kg/injection, schedule: Q01DX009 (ip), vehicle: saline with Tween-80) is 107 % of control; the T/C (dose: 35.0 mg/kg/injection, schedule: Q01DX009 (ip), vehicle: saline with Tween-80) was 160 % of control; the T/C under setting [1] is 96 % of control; the T/C under setting [2] was 111 % of control and 92 % of control.

Turning to `CC(C)(Br)C(=O)NN=C(c1ccccc1)c1ccccc1`, the T/C runs as follows: (dose: 50.0 mg/kg/injection, schedule: Q01DX009 (ip), vehicle: saline) 100 % of control; (dose: 100.0 mg/kg/injection, schedule: Q01DX009 (ip), vehicle: saline) 100 % of control; (dose: 200.0 mg/kg/injection, schedule: Q01DX009 (ip), vehicle: saline) 100 % of control.

`CCCCCCCCCCCC1=C(O)C(=O)C(Br)=C(O)C1=O`: the T/C by setting is: under setting [3], 92 % of control; under setting [4], 92 % of control.

On to `CCOc1cc2c(cc1C(C)c1ccccc1OC)OCO2` (stereo unspecified), for which the T/C is, setting by setting: under setting [3], 100 % of control; under setting [4], 98 % of control; under setting [5], 96 % of control.

Regarding `c1cc(Oc2ccc3ccncc3c2)c2ccncc2c1`, the T/C is, setting by setting: (dose: 100.0 mg/kg/injection, schedule: Q01DX001 (ip), vehicle: saline with Tween-80) 100 % of control; (dose: 200.0 mg/kg/injection, schedule: Q01DX001 (ip), vehicle: saline with Tween-80) 100 % of control; (dose: 400.0 mg/kg/injection, schedule: Q01DX001 (ip), vehicle: saline with Tween-80) 95 % of control.

Turning to `COc1ccc2c(c1)[nH]c1c(/C=C/c3ccc([N+](=O)[O-])cc3)nccc12`, the T/C was 107 % of control (dose: 30.0 mg/kg/injection, schedule: Q01DX005 (ip), vehicle: Klucel (hydroxypropylcellulose) (HPC)); 103 % of control under setting [6]; 105 % of control under setting [7]; 90 % of control under setting [8].

`CCCCCCCCCCCCCCCCCC(=O)[O][Sn]([CH2]CCC)([CH2]CCC)[O]C(=O)CCCCCCCCCCCCCCCCC`: the T/C was 109 % of control (dose: 2.66 mg/kg/injection, schedule: Q04DX003 (ip), vehicle: other); 106 % of control (dose: 4.0 mg/kg/injection, schedule: Q04DX003 (ip), vehicle: other); 109 % of control (dose: 6.0 mg/kg/injection, schedule: Q04DX003 (ip), vehicle: other); 110 % of control (dose: 9.0 mg/kg/injection, schedule: Q04DX003 (ip), vehicle: other).

`N#CCCn1ccc2ccccc21`: the T/C by setting is: (dose: 100.0 mg/kg/injection, schedule: Q04DX003 (ip), vehicle: other) 113 % of control; (dose: 200.0 mg/kg/injection, schedule: Q04DX003 (ip), vehicle: other) 100 % of control; (dose: 400.0 mg/kg/injection, schedule: Q04DX003 (ip), vehicle: other) 90 % of control.

`CC(C)c1ccc2nc3ccc(C(=O)NCCN(C)C)cn3c(=O)c2c1`: the T/C is 105 % of control under setting [6] and 101 % of control under setting [7].

Regarding `N#CC1=CNc2ccccc2N=C1N`, the T/C is, setting by setting: under setting [3], 104 % of control; under setting [4], 99 % of control.

As to `COC(=O)C12OCC34C(CC5C(C)C6=CC(=O)OC6=CC5(C)C3C(O)C1O)OC(=O)C(O)C24` (stereo unspecified), the T/C (dose: 0.63 mg/kg/injection, schedule: Q01DX005 (ip), vehicle: Klucel (hydroxypropylcellulose) (HPC)) was 150 % of control and the T/C (dose: 1.25 mg/kg/injection, schedule: Q01DX005 (ip), vehicle: Klucel (hydroxypropylcellulose) (HPC)) is 169 % of control.

Consider `ClCC(CCl)(CCl)CCl`, for which the T/C by setting is: under setting [1], 105 % of control; (dose: 100.0 mg/kg/injection, schedule: Q04DX003 (ip), vehicle: saline with Tween-80) 98 % of control.

In the case of `CN(C)Cc1cccc[c]1[Sn]([CH3])([Br])[c]1ccccc1CN(C)C`, the T/C (dose: 3.12 mg/kg/injection, schedule: Q01DX009 (ip), vehicle: saline) was 101 % of control and 113 % of control and 88 % of control.

`COc1cccc(C=Nc2cc(C)ccn2)c1O.COc1cccc(C=Nc2cc(C)ccn2)c1O.[Cu]`: the T/C was 99 % of control (dose: 6.25 mg/kg/injection, schedule: Q01DX005 (ip), vehicle: saline with Tween-80); 100 % of control (dose: 12.5 mg/kg/injection, schedule: Q01DX005 (ip), vehicle: saline with Tween-80); 96 % of control (dose: 25.0 mg/kg/injection, schedule: Q01DX005 (ip), vehicle: saline with Tween-80).

With `CC(=O)Nc1ccc(/C=C2/C(=O)ON=C2C)cc1`, the T/C runs as follows: (dose: 60.0 mg/kg/injection, schedule: Q01DX005 (ip), vehicle: saline with Tween-80) 116 % of control; (dose: 120.0 mg/kg/injection, schedule: Q01DX005 (ip), vehicle: saline with Tween-80) 116 % of control.

Turning to `Clc1ccccc1C(Nc1ncccn1)Nc1ncccn1`, the T/C is 93 % of control under setting [9]; 93 % of control under setting [10]; 96 % of control (dose: 200.0 mg/kg/injection, schedule: Q01DX005 (ip), vehicle: Klucel (hydroxypropylcellulose) (HPC)).

`COc1ccc(Cl)c2c(=O)c3ccc4c(c3[nH]c12)C(=O)c1ccccc1C4=O`: the T/C reads like this: under setting [6], 96 % of control; under setting [7], 91 % of control; under setting [8], 86 % of control.

As to `CS(=O)(=O)CC(=O)c1ccccc1`, the T/C was 101 % of control and 106 % of control (dose: 25.0 mg/kg/injection, schedule: Q01DX009 (ip), vehicle: saline with Tween-80); 97 % of control under setting [11]; 111 % of control and 106 % of control under setting [12]; 103 % of control and 111 % of control under setting [13].

Turning to `c1ccc2cc3c(cc2c1)Cn1c-3nc2ccccc21`, the T/C (dose: 200.0 mg/kg/injection, schedule: Q04DX003 (ip), vehicle: saline with Tween-80) is 92 % of control and the T/C under setting [2] was 100 % of control.

In the case of `CS(=O)(=O)OCc1cc(=O)c(OS(C)(=O)=O)co1`, the T/C was 108 % of control under setting [3], 110 % of control under setting [4] and 112 % of control under setting [5].

As to `CC[Si](/C=C(/C)C(C)(C)C)(CC)CC`, the T/C runs as follows: under setting [11], 94 % of control; under setting [12], 96 % of control; under setting [13], 113 % of control.

Take `CC(C)=CCC/C(C)=C/COc1cc(O)c2c(c1)C(=O)c1cc(C)cc(O)c1C2=O`: the T/C (dose: 5.0 mg/kg/injection, schedule: Q01DX009 (ip), vehicle: DMSO) was 100 % of control; the T/C (dose: 10.0 mg/kg/injection, schedule: Q01DX009 (ip), vehicle: DMSO) is 97 % of control; the T/C (dose: 20.0 mg/kg/injection, schedule: Q01DX009 (ip), vehicle: DMSO) is 97 % of control.

Consider `O=C1c2[nH]cnc2N(Cc2ccc(Cl)cc2)C2=NCCN12`, for which the T/C is 102 % of control under setting [9] and 100 % of control under setting [10].
